The values that follow come from US10648979B2, “Molecular probes for detecting gram-negative bacteria in vitro and in vivo” (priority 2014, dated 2020).

In the assay the test system is bacteria instilled into ovine lung segments. Put plainly: Ex vivo ovine lung model of bacterial infection, in situ labelling imaged by FCFM. As for the experimental part:
FIG. 9: Ex vivo model of bacterial infection. A) Ovine lungs were harvested, ventilated and placed in a neonatal incubator with ambient temperature of 37° C. Pulmonary segments were instilled with PBS (control) or bacteria via bronchoscopy. Probes were then instilled and segments imaged with fibered confocal fluorescence microscopy (FCFM) using 488 nm Laser Scanning Unit (LSU). […] Bacteria (MSSA) instilled into segments of ovine lung and lavaged at 1, 3 and 5 hours (n=3), plated for CFU/ml and counted following 16 hour incubation.
NBD-UBIdend and NBD-PMX were assessed for in situ specificity and sensitivity in an ex vivo ovine model of bacterial infection (FIG. 9). […] We observed identical patterns with Calcein-labelled bacteria and Green Fluorescent Protein-expressing S. aureus which were instilled into the lung and imaged with FCFM (FIG. 10A). This pattern is reproduced identically by instilling bacteria “pre-labelled” with NBD-UBIdend and NBD-PMX into lung segments.
Following this thorough characterisation of the model and positive controls, we instilled PBS or VAP-relevant bacteria into distinct segments within the ex vivo lung model, followed by the microdosed delivery of the probes.
All compounds have undergone biological assessment.
Bacteria were grown to midlog phase in 400 ml TSB, pelleted by centrifugation and resuspended in 2 ml PBS. This was mixed with 18 ml molten tryptic-soy agar (50° C.) and injected rapidly into vortexing mineral oil +0.01% Span 80, pre-warmed to 50° C. This was then rapidly cooled to 4° C. whilst continuing to vortex to allow the beads to set. Bacterial agar beads were pelleted by centrifugation (20 minutes, 3000 g) and washed in 0.5% sodium deoxycholate (SDC) in PBS (20 minutes, 3000 g), followed by 0.25% SDC (20 minutes, 3000 g) in PBS, washed in PBS (10 minutes, 3000 g) and 3×PBS (5 minutes, 200 g). Beads were resuspended at 50% v/v in PBS for instillation.
From a cohort of surplus stock ewes which were destined for cull, one ewe was identified and terminally euthanized with an overdose of anaesthetic. Death was confirmed and the trachea was identified and clamped in situ. The thoracic cavity was then accessed and the lungs were freed from surrounding tissues and organs and the heart/lung was removed en block. The right pulmonary artery was identified, cannulated and perfused with 1000 ml 0.9% NaCl. Once filling of the left ventricle was confirmed an incision was made to allow free drainage and perfusion continued until the drainage from the left atrium was clear. The lungs were then transferred to the Queen's Medical Research Institute and the trachea was intubated with an 8.0 endotracheal tube immediately following clamp release. […]

Molecules are shown by their SMILES. Bridge positions count the residues as written; N and C are the ends. Square brackets hold non-standard residues; d marks the D form. Peptide text beside a SMILES is read from it. * marks the point of attachment. ξ: configuration not given here. NBD = O=[N+]([O-])c1ccc(*)c2nonc12; dDab = NCC[C@@H](N)C(=O)O; Dab = NCC[C@H](N)C(=O)O; AEEA = NCCOCCOCC(=O)O; ξDab = NCCC(N)C(=O)O

For the compound `CC(C)C[C@@H]1NC(=O)[C@@H](Cc2ccccc2)NC(=O)[C@@H](CCN)NC(=O)C(NC(=O)[C@H](CCN)NC(=O)[C@@H](NC(=O)COCCOCCNc2ccc([N+](=O)[O-])c3nonc23)[C@@H](C)O)CCNC(=O)[C@@H]([C@H](C)O)NC(=O)[C@H](CCN)NC(=O)[C@H](CCN)NC1=O` (stereo partly shown) [NBD-PMX] ({NBD-AEEA}-T[Dab][ξDab][dDab][dF]L[Dab][Dab][dT]; lactam 3-C), where the note is “FCFM”, the “detection of bacteria-coated agarose beads in situ” value is “when beads are coated with bacteria a signal is seen” and the “in situ labelling of bacteria in segments instilled with bacteria” value is “demonstrated labelling”. Moreover, for the setting “MSSA, MRSA, S. pneumoniae”, the “signal in segments with PBS or gram-positive bacteria” value is “no signal in segments with PBS or gram-positive bacteria”. Under “P. aeruginosa (PA01, J3284), K. pneumoniae, E. coli”, the “signal in segments instilled with gram-negative bacteria” value is recorded as “the same signal as in the ‘positive controls’”.
